Results reported in the NIST ThermoML archive (doi:10.1016/j.tca.2014.07.018).

Assay: molar heat capacity at saturation pressure
Settings: Crystal, Small (less than 1 g) adiabatic calorimetry

C1C2CC3CC1CC(c1nnn[nH]1)(C2)C3 [5-(1-adamantyl)tetrazole]
Settings | molar heat capacity [J/K/mol]
5.162 K | 0.5343
5.486 K | 0.6514
5.811 K | 0.7886
6.141 K | 0.9446
6.535 K | 1.157
6.999 K | 1.433
7.466 K | 1.748
7.944 K | 2.099
8.427 K | 2.496
8.915 K | 2.914
9.407 K | 3.374
9.905 K | 3.847
10.47 K | 4.424
11.12 K | 5.106
11.77 K | 5.817
12.42 K | 6.568
13.1 K | 7.361
13.77 K | 8.166
14.45 K | 9.013
15.14 K | 9.87
15.93 K | 10.87
16.83 K | 12.03
17.74 K | 13.17
18.65 K | 14.31
19.56 K | 15.45
20.76 K | 16.96
22.25 K | 18.79
23.76 K | 20.65
25.27 K | 22.46
26.78 K | 24.22
28.31 K | 25.96
29.59 K | 27.43
31.31 K | 29.26
33.16 K | 31.15
35.01 K | 33.01
36.86 K | 34.76
38.72 K | 36.52
40.58 K | 38.18
42.54 K | 39.91
44.6 K | 41.62
46.67 K | 43.41
48.74 K | 45.04
50.82 K | 46.64
52.9 K | 48.22
54.99 K | 49.8
57.07 K | 51.31
59.17 K | 52.73
61.28 K | 54.19
63.38 K | 55.67
65.49 K | 57.06
67.6 K | 58.52
69.71 K | 59.93
71.92 K | 61.4
74.24 K | 62.88
76.57 K | 64.45
78.7 K | 65.87
78.9 K | 65.93
80.66 K | 67.14
81.23 K | 67.48
82.56 K | 68.36
83.56 K | 68.98
84.46 K | 69.59
86.37 K | 70.82
88.29 K | 72.06
90.2 K | 73.3
92.12 K | 74.53
94.04 K | 75.78
95.96 K | 77.1
97.9 K | 78.34
99.83 K | 79.61
101.75 K | 80.79
103.69 K | 82.06
105.62 K | 83.32
107.56 K | 84.62
109.51 K | 85.87
111.45 K | 87.18
113.4 K | 88.45
115.36 K | 89.75
117.32 K | 91.05
119.27 K | 92.33
121.23 K | 93.59
123.19 K | 94.91
125.16 K | 96.2
127.12 K | 97.48
129.09 K | 98.86
131.06 K | 100.1
133.04 K | 101.5
135.02 K | 102.8
137 K | 104.2
138.98 K | 105.5
140.97 K | 106.9
142.95 K | 108.3
144.93 K | 109.7
146.93 K | 111.1
148.92 K | 112.6
150.91 K | 114
152.9 K | 115.4
154.89 K | 116.8
156.89 K | 118.3
158.89 K | 119.8
160.89 K | 121.3
162.89 K | 122.7
164.89 K | 124.3
166.9 K | 125.8
168.9 K | 127.4
170.91 K | 128.9
172.92 K | 130.5
174.93 K | 132
176.93 K | 133.7
178.93 K | 135.1
180.94 K | 136.8
182.95 K | 138.3
184.97 K | 140.1
186.99 K | 141.6
189 K | 143.3
191.02 K | 144.9
193.03 K | 146.6
195.05 K | 148.4
197.07 K | 150.1
199.09 K | 151.7
201.1 K | 153.4
203.13 K | 155.1
205.16 K | 156.8
207.18 K | 158.6
209.21 K | 160.4
211.24 K | 162.1
213.27 K | 163.9
215.3 K | 165.7
217.33 K | 167.6
219.37 K | 169.4
221.4 K | 171.2
223.43 K | 173
224.08 K | 173.6
225.46 K | 174.9
226.05 K | 175.4
227.5 K | 176.8
228.08 K | 177.3
230.12 K | 179.2
232.16 K | 181.1
234.19 K | 183.1
236.23 K | 184.9
238.27 K | 186.8
240.31 K | 188.8
242.35 K | 190.8
244.39 K | 192.5
246.43 K | 194.5
248.47 K | 196.4
250.51 K | 198.4
252.55 K | 200.3
254.59 K | 202.2
256.64 K | 204.1
258.68 K | 206.2
260.73 K | 208
262.77 K | 209.9
264.81 K | 211.9
266.86 K | 213.7
268.9 K | 215.5
270.94 K | 217.3
272.99 K | 219.2
275.03 K | 221
277.08 K | 222.9
279.13 K | 224.5
281.18 K | 226.3
283.22 K | 227.9
285.27 K | 229.8
287.32 K | 231.5
289.37 K | 233.1
291.42 K | 234.7
293.46 K | 236.3
295.51 K | 237.9
297.56 K | 239.7
299.61 K | 241.3
301.65 K | 242.8
303.7 K | 244.6
305.75 K | 246
307.8 K | 247.6
309.86 K | 249.2
311.91 K | 250.7
313.96 K | 252.3
316.02 K | 253.9
318.07 K | 255.5
320.14 K | 256.9
322.2 K | 258.6
324.26 K | 260.2
326.32 K | 261.8
328.38 K | 263.2
330.44 K | 264.8
332.5 K | 266.3
334.57 K | 267.8
336.63 K | 269.4
338.69 K | 270.9
340.76 K | 272.4
342.83 K | 274.2
344.9 K | 275.7
346.97 K | 277.1
349.04 K | 278.9
351.11 K | 280.5
353.2 K | 282.1
355.27 K | 283.8
357.34 K | 285.5
359.41 K | 287.2
361.48 K | 288.9
363.56 K | 290.4
365.63 K | 292
367.7 K | 293.7
